Data: paper PMC7822874, “Chemoprotective antimalarials identified through quantitative high-throughput screening of Plasmodium blood and liver stage parasites” (Scientific Reports, 2021)
Where “and” joins values, the source holds several entries; their conditions need not be identical. Equal values may be shown once. Read-outs that look alike come from different tables or passages of the source.

Assays:
[1] = system: Plasmodium falciparum Dd2 asexual blood stage parasites; assay: microbe, parasite or virus in culture; parameters: species or system Plasmodium falciparum Dd2 in human erythrocytes; single determination (one 11-point concentration-response curve); settings: Plasmodium falciparum, DD2, Erythrocyte, 72 h; read-out: AC50
[2] = system: P. berghei-ANKA-GFP-LucCON liver stage parasites in HepG2-A16-CD81EGFP cells; assay: P. berghei liver stage Pb-Luc assay, Method 1 (UCSD, 1536-well); type: cell-based, Plasmodium berghei; settings: Plasmodium berghei, 48 h
HepG2-A16-CD81EGFP cells = settings: for HepG2 1uM growth rep1 / HepG2 1uM growth rep2: HepG2, 1 µM compound treatment (10 mM stocks); for HepG2 1uM growth rep1 / HepG2 3uM growth rep1: replicate 1, normalized; for HepG2 1uM growth rep2 / HepG2 3uM growth rep2: replicate 2, normalized; for HepG2 3uM growth rep1 / HepG2 3uM growth rep2: HepG2, 3 µM compound treatment (10 mM stocks)
in vitro [3] = settings: human
in vitro [4] = settings: human, hepg2 cells
HepG2 = settings: human, hepg2 cells, 48 h
[5] = nominal 1 uM (10 mM stock), […] for 15 mM, 1.2 uM for 12 mM, 2 uM for 20 mM stock, average of 2 wells, 1536-well plate, repeat 1, read-out: Pb-Luc signal, 1 uM, repeat 1
[6] = nominal 1 uM (10 mM stock), […] for 15 mM, 1.2 uM for 12 mM, 2 uM for 20 mM stock, average of 2 wells, 1536-well plate, repeat 2, read-out: Pb-Luc signal, 1 uM, repeat 2
[7] = nominal 1 uM (10 mM stock), […] for 15 mM, 1.2 uM for 12 mM, 2 uM for 20 mM stock, average of 2 wells, 1536-well plate, repeat 3, read-out: Pb-Luc signal, 1 uM, repeat 3
[8] = nominal 3 uM (10 mM stock), 4.5 uM for 15 mM, 3.6 uM for 12 mM, 6 uM for 20 mM stock, average of 2 wells, 1536-well plate, repeat 1, read-out: Pb-Luc signal, 3 uM, repeat 1
[9] = nominal 3 uM (10 mM stock), 4.5 uM for 15 mM, 3.6 uM for 12 mM, 6 uM for 20 mM stock, average of 2 wells, 1536-well plate, repeat 2, read-out: Pb-Luc signal, 3 uM, repeat 2
[10] = nominal 3 uM (10 mM stock), 4.5 uM for 15 mM, 3.6 uM for 12 mM, 6 uM for 20 mM stock, average of 2 wells, 1536-well plate, repeat 3, read-out: Pb-Luc signal, 3 uM, repeat 3
[11] = nominal 1 uM (10 mM stock), […] for 15 mM, 1.2 uM for 12 mM, 2 uM for 20 mM stock, average of 2 wells, repeat 2
[12] = nominal 3 uM (10 mM stock), 4.5 uM for 15 mM, 3.6 uM for 12 mM, 6 uM for 20 mM stock, average of 2 wells, repeat 2
[13] = HepG2-A16-CD81EGFP cells, uninfected
[14] = P. berghei liver stage, 1 µM compound treatment (10 mM stocks), replicate 1, normalized, average of 2 wells on a 1536 well plate, read-out: PbLuc 1uM growth rep1
[15] = P. berghei liver stage, 1 µM compound treatment (10 mM stocks), replicate 2, normalized, average of 2 wells on a 1536 well plate, read-out: PbLuc 1uM growth rep2
[16] = P. berghei liver stage, 3 µM compound treatment (10 mM stocks), replicate 1, normalized, average of 2 wells on a 1536 well plate, read-out: PbLuc 3uM growth rep1
[17] = P. berghei liver stage, 3 µM compound treatment (10 mM stocks), replicate 2, normalized, average of 2 wells on a 1536 well plate, read-out: PbLuc 3uM growth rep2

| Structure (SMILES) | AC50 [1] | activity at 1 µM [2, 5] | activity at 1 µM [2, 6] | activity at 1 µM [2, 7] | activity at 3 µM [2, 8] | activity at 3 µM [2, 9] | activity at 3 µM [2, 10] | HepG2 viability signal, 1 uM, repeat 2 (HepG2-A16-CD81EGFP cells; [11]) | viability at 48 h, 1 µM (in vitro [3]; [13]) | viability at 48 h, 3 µM (in vitro [3]; [13]) | CC50 at 48 h (in vitro [4]) | Log AC50 (M) (HepG2) | activity at 1 µM [2, 14] | activity at 1 µM [2, 15] | activity at 3 µM [2, 16] | activity at 3 µM [2, 17] | HepG2 1uM growth rep1 (HepG2-A16-CD81EGFP cells; average of 2 wells) | HepG2 1uM growth rep2 (HepG2-A16-CD81EGFP cells; average of 2 wells) | HepG2 3uM growth rep1 (HepG2-A16-CD81EGFP cells; average of 2 wells) | HepG2 3uM growth rep2 (HepG2-A16-CD81EGFP cells; average of 2 wells) | other results |
| --- | --- | --- | --- | --- | --- | --- | --- | --- | --- | --- | --- | --- | --- | --- | --- | --- | --- | --- | --- | --- | --- |
| N=c1n(CCN2CCCCC2)c2ccccc2n1CC(O)COc1ccc(Cl)cc1Cl (centres unmarked) [NCGC00100256-01] | 4.22 µM | 94.7% | 93.8% | 119% | 65.4% | 71% | 72.8% | 103.32% | 103% | 102% | 30.6 µM | -4.5143 M |  |  |  |  |  |  |  |  | HepG2 viability signal, 3 uM, repeat 2 (HepG2-A16-CD81EGFP cells; [12]): 101.25% |
| CCOc1cccc(CNCCc2c(C)[nH]c3ccc(OC(F)(F)F)cc23)c1O.O=C(O)C(=O)O [MLS001198351-01] | 2.37 µM |  |  |  |  |  |  |  |  |  | 34.3 µM | -4.4643 M | 46% | 47% | 9% | 16% | 97% | 92% | 70% | 71% |  |
| CCCCCn1c(=N)n(CC(O)COc2cccc(C)c2)c2ccccc21 (centres unmarked) [NCGC00101833-01] | 2.11 µM | 93.7% | 90.1% | 79.6% | 67.5% | 71% | 96.1% | 100.99% | 98.8% | 94.8% | 43.2 µM | -4.3643 M |  |  |  |  |  |  |  |  | HepG2 viability signal, 3 uM, repeat 2 (HepG2-A16-CD81EGFP cells; [12]): 100.64% |
| NS(=O)(=O)c1ccc(N/N=C/c2cn(-c3ccccc3)nc2-c2cccs2)cc1 [MLS000393371-01] | 0.335 µM |  |  |  |  |  |  |  |  |  | 21.7 µM | -4.6643 M | 80% | 57% | 26% | 21% | 92% | 91% | 94% | 94% |  |
| CN(C)CCCNc1cc(N2CCN(C3CCCCC3)CC2)c2noc3c2c1C(=O)c1ccccc1-3 [NCGC00111069-01] | 1.33 µM | 66% | 110% | 109% | 57.2% | 71.6% | 75.6% | 102.79% | 96.3% | 93.8% | 38.5 µM | -4.4143 M |  |  |  |  |  |  |  |  | HepG2 viability signal, 3 uM, repeat 2 (HepG2-A16-CD81EGFP cells; [12]): 99.71% |
| O=C(Nc1ccccc1)OC[C@H]1C[C@@H]2CCN1C[C@@H]2c1cc(C2CCCC2)nc(-c2ccncc2)n1 [NCGC00421344-01] | 1.68 µM | 68.5% | 91.8% | 72.8% | 27.1% | 71.6% | 77.7% |  |  |  | 34.3 µM | -4.4643 M |  |  |  |  |  |  |  |  | HepG2 viability signal, 1 uM, repeat 2 (HepG2-A16-CD81EGFP cells; human, 48 h, 1 µM): 103.60%; HepG2 viability signal, 3 uM, repeat 2 (HepG2-A16-CD81EGFP cells; human, 48 h, 3 µM): 105.28%; viability at 48 h, 1 µM (in vitro [3]): 101%; viability at 48 h, 3 µM (in vitro [3]): 105% |
| CN1CCN(c2ccc3ncc(Nc4ccccc4-c4ccccc4)n3n2)CC1 [NCGC00412547-01] | 0.863 µM | 101% | 104% | 100% | 50.6% | 88.8% | 92.9% | 97.22% | 96% | 97.1% | 44.4 µM | -4.3528 M |  |  |  |  |  |  |  |  | HepG2 viability signal, 3 uM, repeat 2 (HepG2-A16-CD81EGFP cells; [12]): 96.99% |
| Br.CCOC(=O)c1c(CSC(=N)N)n(-c2ccc(Br)cc2)c2cc(Br)c(OC(C)=O)cc12 [MLS000595146-01] |  |  |  |  |  |  |  |  | 105% | 104% | 48.5 µM | -4.3143 M |  |  |  |  |  |  |  |  | HepG2 viability, % of control (HepG2-A16-CD81EGFP cells): 100% and 96% |
| C/C(=N\Nc1ncnc2sc(C)c(C)c12)c1ccccn1 [MLS001176565-01] | 1.33 µM |  |  |  |  |  |  |  |  |  | 0.485 µM | -6.3143 M | 11% | 8% | 6% | 5% | 55% | 50% | 36% | 44% |  |
| CC1(C)Cc2ccccc2C2=NNC(=O)C2=N1 [MLS000709658-01] | 3.35 µM |  |  |  |  |  |  |  |  |  | 34.3 µM | -4.4643 M | 117% | 83% | 68% | 64% | 98% | 96% | 90% | 99% |  |
| N#Cc1ccc(NC(=O)Nc2ccc(Cl)cc2)cc1 [MLS000104525-01] | 5.31 µM |  |  |  |  |  |  |  |  |  | 34.3 µM | -4.4643 M | 86% | 61% | 6.45% | 7% | 95% | 87% | 72% | 84% |  |
